In the experiment the target is T1, PARK7 (Homo sapiens, UniProt Q99497).
T1 sequence (Q99497 1-189): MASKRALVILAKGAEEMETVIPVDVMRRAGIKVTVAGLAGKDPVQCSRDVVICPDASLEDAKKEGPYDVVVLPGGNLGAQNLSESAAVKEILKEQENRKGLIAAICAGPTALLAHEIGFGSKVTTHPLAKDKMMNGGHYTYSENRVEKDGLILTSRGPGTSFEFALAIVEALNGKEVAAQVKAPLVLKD
Description: High-throughput screen of the crude compound library, PARK7 fluorescence polarization (FP) assay with FP reagent JYQ-107. It counts as biochemical. The following applies: 1.25 µM, crude compound library, read-out: HTS FP assay %Inhibition (1.25 µM). For orientation: Polarisation of emitted light reports the rotation of a fluorescent probe.

Where two headings read alike, the source gives them in different places.

Regarding `N#CN1CC[C@@H](C(=O)Nc2nc3c(s2)CN(C(=O)c2nccc4ccccc24)CC3)C1` [compound 417], under “FP reagent JYQ-107”, the inhibition (as a rule, the change of the read-out against control, counted positive when it falls) at 1.25 µM turned out to be 82.2%.
As to `CC(=O)NCC(=O)N1CCc2nc(NC(=O)[C@@H]3CCN(C#N)C3)sc2C1` [compound 389], under “FP reagent JYQ-107”, the inhibition at 1.25 µM stood at 71.7%.
Take `CC1CCN(c2ncc(C(=O)N3CCc4nc(NC(=O)[C@@H]5CCN(C#N)C5)sc4C3)s2)CC1` [compound 88]: the inhibition at 1.25 µM came out at 77.3%.
The same measure, in the same setting: for `Cc1cc(C(=O)N2CCc3nc(NC(=O)[C@@H]4CCN(C#N)C4)sc3C2)c(C)n1C1CC1` [compound 155] the value was 47.7%.
As for `Cc1n[nH]c(C)c1Cc1ccc(C(=O)N2CCc3nc(NC(=O)[C@@H]4CCN(C#N)C4)sc3C2)o1` [compound 363], the inhibition at 1.25 µM (FP reagent JYQ-107) was found to be 78.9%.
Take `N#CN1CC[C@@H](C(=O)Nc2nc3c(s2)CN(C(=O)Cc2cccc(OCc4ccccn4)c2)CC3)C1` [compound 74]: the inhibition at 1.25 µM stood at 82.1%.
On to `N#CN1CC[C@@H](C(=O)Nc2nc3c(s2)CN(C(=O)Cc2ccc(NS(=O)(=O)c4c(Cl)cccc4Cl)cc2)CC3)C1` [compound 57], for which the inhibition at 1.25 µM came to 84.9%.
As to `N#CN1CC[C@@H](C(=O)Nc2nc3c(s2)CN(C(=O)C(CCc2ccccc2)c2ccccc2)CC3)C1` (some centres unmarked) [compound 380], the inhibition at 1.25 µM (FP reagent JYQ-107) was 80.3%.
The same measure, in the same setting: for `N#CN1CC[C@@H](C(=O)Nc2nc3c(s2)CN(C(=O)c2ccc4c(c2)ncn4C2CCCCO2)CC3)C1` (some centres unmarked) [compound 471] the value was 80%.
On to `N#CN1CC[C@@H](C(=O)Nc2nc3c(s2)CN(C(=O)C2=NNC(=O)C2c2ccccc2)CC3)C1` (some centres unmarked) [compound 168], for which the inhibition at 1.25 µM is 80.3%.
On to `N#CN1CC[C@@H](C(=O)Nc2nc3c(s2)CN(C(=O)c2cn(CC4CCOC4)nn2)CC3)C1` (some centres unmarked) [compound 234], for which the inhibition at 1.25 µM is 82.7%.
On the same count and under the same terms, as for `N#CN1CC[C@@H](C(=O)Nc2nc3c(s2)CN(C(=O)c2occc2CN2CCOCC2)CC3)C1` [compound 122], the figure is 70.9%; as for `N#CN1CC[C@@H](C(=O)Nc2nc3c(s2)CN(C(=O)c2c(-c4ccccc4)noc2C(F)F)CC3)C1` [compound 93], 60.9%.
As to `Cc1nn(-c2cccnc2)nc1C(=O)N1CCc2nc(NC(=O)[C@@H]3CCN(C#N)C3)sc2C1` [compound 230], the inhibition at 1.25 µM is 62.8%.
Regarding `CC(C)n1nccc1[C@@H]1OCC[C@H]1C(=O)N1CCc2nc(NC(=O)[C@@H]3CCN(C#N)C3)sc2C1` [compound 367], the inhibition at 1.25 µM (FP reagent JYQ-107) was 65%.
On the same count and under the same terms, for `CC1=NN(c2cccc(Br)c2)C(=O)C1CC(=O)N1CCc2nc(NC(=O)[C@@H]3CCN(C#N)C3)sc2C1` (some centres unmarked) [compound 364] the value was 73%; for `Cc1ncc(C(=O)N2CCc3nc(NC(=O)[C@@H]4CCN(C#N)C4)sc3C2)s1` [compound 469], 76%.
In the case of `CCc1ccc(C(=O)N2CCC(C(=O)N3CCc4nc(NC(=O)[C@@H]5CCN(C#N)C5)sc4C3)CC2)o1` [compound 294], the inhibition at 1.25 µM was found to be 78.1%.
Turning to `N#CN1CC[C@@H](C(=O)Nc2nc3c(s2)CN(C(=O)Cc2ccncc2)CC3)C1` [compound 404], for the setting “FP reagent JYQ-107”, the inhibition at 1.25 µM was 58.2%.
As for `N#CN1CC[C@@H](C(=O)Nc2nc3c(s2)CN(C(=O)Cc2coc(-c4cccs4)n2)CC3)C1` [compound 341], the inhibition at 1.25 µM came out at 87%.
On to `N#CN1CC[C@@H](C(=O)Nc2nc3c(s2)CN(C(=O)c2sc(N4CCCC4)nc2Cl)CC3)C1` [compound 227], for which the inhibition at 1.25 µM worked out at 74%.
On the same count and under the same terms, as for `N#CN1CC[C@@H](C(=O)Nc2nc3c(s2)CN(C(=O)c2cccn2Cc2ccccn2)CC3)C1` [compound 332], the figure is 73.2%; as for `CC1CN(S(=O)(=O)c2ccc(C(=O)N3CCc4nc(NC(=O)[C@@H]5CCN(C#N)C5)sc4C3)cc2)CC(C)O1` (some centres unmarked) [compound 307], 84.8%.
The same measure, in the same setting: as for `Cn1cc(S(=O)(=O)N2CCCC(C(=O)N3CCc4nc(NC(=O)[C@@H]5CCN(C#N)C5)sc4C3)C2)cn1` (some centres unmarked) [compound 114], the figure is 68.2%; as for `CCn1cc([C@@H]2OCCC[C@H]2C(=O)N2CCc3nc(NC(=O)[C@@H]4CCN(C#N)C4)sc3C2)cn1` [compound 318], 65.8%.
The same measure, in the same setting: as for `N#CN1CC[C@@H](C(=O)Nc2nc3c(s2)CN(C(=O)CC2(n4cnnn4)CCOCC2)CC3)C1` [compound 226], the figure is 68.7%.
`N#CN1CC[C@@H](C(=O)Nc2nc3c(s2)CN(C(=O)[C@@H]2CCCO[C@H]2c2ccccc2)CC3)C1` [compound 287]: the inhibition at 1.25 µM was determined as 64.1%.
Still for that read-out and setting: for `N#CN1CC[C@@H](C(=O)Nc2nc3c(s2)CN(C(=O)C2CCN2C2CCCC2)CC3)C1` (some centres unmarked) [compound 320] the value was 64.2%; for `N#CN1CC[C@@H](C(=O)Nc2nc3c(s2)CN(C(=O)c2csc(-c4ccncc4)n2)CC3)C1` [compound 214], 59.5%; for `N#CN1CC[C@@H](C(=O)Nc2nc3c(s2)CN(C(=O)C(Cc2ccccc2)N2CCCOC2=O)CC3)C1` (some centres unmarked) [compound 252], 74.6%.
Same read-out and setting: for `Cc1ccc(N2CCCC(C(=O)N3CCc4nc(NC(=O)[C@@H]5CCN(C#N)C5)sc4C3)C2)nc1` (some centres unmarked) [compound 170] the value was 62.7%.
Same read-out and setting: for `CN1CCN(C(=O)[C@@H]2[C@@H](C(=O)N3CCc4nc(NC(=O)[C@@H]5CCN(C#N)C5)sc4C3)C2(C)C)CC1` [compound 189] the value was 66.8%.
Regarding `CC(=O)CCCCC(=O)N1CCc2nc(NC(=O)[C@@H]3CCN(C#N)C3)sc2C1` [compound 419], the inhibition at 1.25 µM (FP reagent JYQ-107) is 74%.
In the case of `N#CN1CC[C@@H](C(=O)Nc2nc3c(s2)CN(C(=O)[C@@H]2CCO[C@H]2c2ccccc2)CC3)C1` [compound 39], the inhibition at 1.25 µM turned out to be 63.3%.
Still for that read-out and setting: as for `N#CN1CC[C@@H](C(=O)Nc2nc3c(s2)CN(C(=O)c2cccnc2N2CCCCC2)CC3)C1` [compound 167], the figure is 69.5%; as for `N#CN1CC[C@@H](C(=O)Nc2nc3c(s2)CN(C(=O)c2sccc2S(=O)(=O)NCc2ccco2)CC3)C1` [compound 236], 58.7%; as for `CC1(C(=O)N2CCc3nc(NC(=O)[C@@H]4CCN(C#N)C4)sc3C2)CCCCN1C(=O)OCc1ccccc1` (some centres unmarked) [compound 283], 65.2%.
Consider `N#CN1CC[C@@H](C(=O)Nc2nc3c(s2)CN(C(=O)c2ccc(Cn4ccnn4)o2)CC3)C1` [compound 280], for which the inhibition at 1.25 µM stood at 81.9%.
Still for that read-out and setting: for `N#CN1CC[C@@H](C(=O)Nc2nc3c(s2)CN(C(=O)C2CC(OCc4ccccc4)C2)CC3)C1` (some centres unmarked) [compound 35] the value was 78.9%.
Consider `N#CN1CC[C@@H](C(=O)Nc2nc3c(s2)CN(C(=O)c2ccc(N4CCCC4)cc2F)CC3)C1` [compound 451], for which the inhibition at 1.25 µM (FP reagent JYQ-107) was 82.6%.
As for `CCS(=O)(=O)N1CCC(C(=O)N2CCc3nc(NC(=O)[C@@H]4CCN(C#N)C4)sc3C2)(c2ccccc2)CC1` [compound 150], the inhibition at 1.25 µM turned out to be 62.5%.
For `COC1CC(C(=O)N2CCc3nc(NC(=O)[C@@H]4CCN(C#N)C4)sc3C2)N(C(=O)OCc2ccccc2)C1` (some centres unmarked) [compound 382], under “FP reagent JYQ-107”, the inhibition at 1.25 µM stood at 75.9%.
`N#CN1CC[C@@H](C(=O)Nc2nc3c(s2)CN(C(=O)c2nn(-c4ccccc4)c(=O)[nH]c2=O)CC3)C1` [compound 359]: the inhibition at 1.25 µM (FP reagent JYQ-107) is 67.9%.
For the molecule `CNc1ccc(C(=O)N2CCc3nc(NC(=O)[C@@H]4CCN(C#N)C4)sc3C2)cc1` [compound 439], for the setting “FP reagent JYQ-107”, the inhibition at 1.25 µM is 73.3%.
As to `N#CN1CC[C@@H](C(=O)Nc2nc3c(s2)CN(C(=O)C2(c4cccs4)CC2)CC3)C1` [compound 138], the inhibition at 1.25 µM worked out at 81.9%.
On to `N#CN1CC[C@@H](C(=O)Nc2nc3c(s2)CN(C(=O)C(Cc2c[nH]cn2)NS(=O)(=O)c2ccc(Cl)cc2)CC3)C1` (some centres unmarked) [compound 7], for which the inhibition at 1.25 µM was determined as 67.3%.
Turning to `N#CN1CC[C@@H](C(=O)Nc2nc3c(s2)CN(C(=O)c2cccc(OCCOc4ccccc4Cl)n2)CC3)C1` [compound 225], the inhibition at 1.25 µM was 86.9%.
Still for that read-out and setting: for `N#CN1CC[C@@H](C(=O)Nc2nc3c(s2)CN(C(=O)Cc2csc(-n4cccc4)n2)CC3)C1` [compound 99] the value was 86.7%.
The same measure, in the same setting: as for `N#CN1CC[C@@H](C(=O)Nc2nc3c(s2)CN(C(=O)Cc2ccc(OCCOc4ccccc4)cc2)CC3)C1` [compound 212], the figure is 85.1%.
Take `N#CN1CC[C@@H](C(=O)Nc2nc3c(s2)CN(C(=O)C2CC(=O)N(OCc4ccccc4)C2)CC3)C1` (some centres unmarked) [compound 370]: the inhibition at 1.25 µM (FP reagent JYQ-107) is 72.4%.
Regarding `N#CN1CC[C@@H](C(=O)Nc2nc3c(s2)CN(C(=O)c2ccc(-n4ncc(Cl)c(Cl)c4=O)cc2)CC3)C1` [compound 102], the inhibition at 1.25 µM was determined as 69.3%.
Regarding `N#CN1CC[C@@H](C(=O)Nc2nc3c(s2)CN(C(=O)CCc2ccccc2Br)CC3)C1` [compound 430], the inhibition at 1.25 µM (FP reagent JYQ-107) is 87.5%.
With `Cc1ccc(CN2C(=O)CCC2C(=O)N2CCc3nc(NC(=O)[C@@H]4CCN(C#N)C4)sc3C2)cc1` (some centres unmarked) [compound 254], the inhibition at 1.25 µM was 53.9%.
Turning to `N#CN1CC[C@@H](C(=O)Nc2nc3c(s2)CN(C(=O)c2ncoc2-c2cccs2)CC3)C1` [compound 10], the inhibition at 1.25 µM is 77.3%.
On the same count and under the same terms, as for `N#CN1CC[C@@H](C(=O)Nc2nc3c(s2)CN(C(=O)Cc2csc(-c4cnccn4)n2)CC3)C1` [compound 8], the figure is 71.4%; as for `N#CN1CC[C@@H](C(=O)Nc2nc3c(s2)CN(C(=O)c2ccc(S(=O)(=O)NC4CC4)cc2)CC3)C1` [compound 48], 79.8%; as for `N#CN1CC[C@@H](C(=O)Nc2nc3c(s2)CN(C(=O)Cc2csc(NS(=O)(=O)c4ccccc4)n2)CC3)C1` [compound 339], 82.7%.
Turning to `N#CN1CC[C@@H](C(=O)Nc2nc3c(s2)CN(C(=O)c2ccc(Cn4cccn4)s2)CC3)C1` [compound 272], the inhibition at 1.25 µM worked out at 83.3%.
Turning to `N#CN1CC[C@@H](C(=O)Nc2nc3c(s2)CN(C(=O)c2ccc(NNC(=O)OCC4c5ccccc5-c5ccccc54)cc2)CC3)C1` [compound 422], the inhibition at 1.25 µM (FP reagent JYQ-107) was determined as 78.9%.

Values taken from PMC11129182, “Development of Inhibitors, Probes, and PROTAC Provides a Complete Toolbox to Study PARK7 in the Living Cell” (Journal of Medicinal Chemistry, 2024).
